Values quoted from earlier work in article PMC3314724 (Journal of Molecular Modeling, 2011).

Assays:
FPR1 = FPR1 agonist class, peptide derivatives

| Substance | Observed value (activity class) (FPR1) | EC50 (human neutrophils) [nM] |
| --- | --- | --- |
| N-formyl-Met-Leu-Phe [fMLF] | Active | ~0.5 |
| N-formyl-Met-Leu-Phe-OMe [fMLF-OMe] | Active |  |
| N-formyl-Met-Leu-Ψ(COO) Phe-NHBzl [fMLΨ(COO)F-NHBzl] | Active |  |
| boc-cis-4-mer-captomethyl-Pro-Leu-Phe-OMe [boc-cis-4-mercaptomethyl-PLF-OMe] | Active |  |
